Series [1] addresses T1, human MOR (Homo sapiens, UniProt P35372). Kind of series: [35S]GTP-γ-S functional assay, CHO cell membranes. It is filed as biochemical. The following applies: stimulation of [35S]GTPγS binding; NA = no activity. Here is the method: In a final volume of 0.5 mL, various concentrations of each tested compound were incubated with […] (μ) of CHO cell membranes that stably expressed the human MOR. The assay buffer consisted of 50 mM Tris-HCl, pH 7.4, 3 mM MgCl2, 0.2 mM EGTA, […] and 100 mM NaCl. The final concentration of [^35S]GTP-γ-S was 0.08 nM. Nonspecific binding was measured by the inclusion of […] GTP-γ-S. Binding was initiated by the addition of the membranes. After an incubation period of 60 min at 30 °C, the reactions were terminated by rapid filtration, and the radioactivity was determined by liquid scintillation counting.
(In general: GTPγS is a poorly hydrolysed GTP analogue; its binding reports G protein activation.)

The target of series [2] is T2, DOR (Homo sapiens, UniProt P41143). Briefly: Radioligand binding assay, displacement of [3H]DPDPE from CHO cell membranes. Also noted: host or cells: CHO cells, stably transfected; membranes. The following applies: for activity / affinity for DOR, in words: in vitro; for Ki: [3H]DPDPE, CHO membranes, read-out: Ki (±SEM) DOR. (In general: In a radioligand displacement assay an active substance lowers the binding of a labelled ligand.)

Series [3] addresses T1, human MOR. Briefly: Radioligand binding assay, displacement of [3H]DAMGO from CHO cell membranes.
The target of series [4] is T3, KOR (Homo sapiens, UniProt P41145). Kind of series: Radioligand binding assay, displacement of [3H]U69593 from CHO cells. Also on record: host or cells: CHO cells, stably transfected; membranes. The following applies: for inhibition at 1 µM: displacement of [3H]U69593 at 1.0 μM.
For series [5], the target named is T1, human MOR. Also on record: method as in PMID 27096047. The following applies: cited from earlier work.
The target in series [6] is T3, KOR. Also noted: expressed in transfected cells; method as in PMID 27096047. The following applies: stimulation of [35S]GTPγS binding; NA = no activity; cited from earlier work.
The target in series [7] is T3, KOR. Also noted: host or cells: CHO cells, stably transfected; membranes; method as in PMID 27096047. The note with it: cited from earlier work; for Ki: read-out: Ki (±SEM) KOR.
Series [8] has as its target T2, DOR. Also noted: host or cells: CHO cells, stably transfected; membranes; method as in PMID 27096047.
For series [9], the target named is T2, DOR. Also noted: expressed in transfected cells; method as in PMID 27096047. The following applies: stimulation of [35S]GTPγS binding; NA = no activity; cited from earlier work.

The source of these data is article PMC9000250, “Computational Methods for Understanding the Selectivity and Signal Transduction Mechanism of Aminomethyl Tetrahydronaphthalene to Opioid Receptors” (Molecules, 2022).

Each structure is given as a SMILES string. Several values for one entry are separate records, joined by “and”; a condition that tells them apart may be missing. Equal entries are not always repeated. Where two headings read alike, the source gives them in different places. Some results are limits rather than exact numbers.

T3 sequence (P41145 whole entry): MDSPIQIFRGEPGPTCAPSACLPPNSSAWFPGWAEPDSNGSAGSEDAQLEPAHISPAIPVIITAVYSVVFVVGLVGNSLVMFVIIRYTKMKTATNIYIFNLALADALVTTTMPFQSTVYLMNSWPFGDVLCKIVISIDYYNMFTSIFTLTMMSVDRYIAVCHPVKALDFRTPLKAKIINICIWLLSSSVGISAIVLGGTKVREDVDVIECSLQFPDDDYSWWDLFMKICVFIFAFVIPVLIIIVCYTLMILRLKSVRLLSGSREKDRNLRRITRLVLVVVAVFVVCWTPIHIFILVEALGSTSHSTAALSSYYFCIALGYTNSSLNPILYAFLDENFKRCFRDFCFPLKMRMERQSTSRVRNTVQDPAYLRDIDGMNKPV
T1 sequence (P35372 whole entry): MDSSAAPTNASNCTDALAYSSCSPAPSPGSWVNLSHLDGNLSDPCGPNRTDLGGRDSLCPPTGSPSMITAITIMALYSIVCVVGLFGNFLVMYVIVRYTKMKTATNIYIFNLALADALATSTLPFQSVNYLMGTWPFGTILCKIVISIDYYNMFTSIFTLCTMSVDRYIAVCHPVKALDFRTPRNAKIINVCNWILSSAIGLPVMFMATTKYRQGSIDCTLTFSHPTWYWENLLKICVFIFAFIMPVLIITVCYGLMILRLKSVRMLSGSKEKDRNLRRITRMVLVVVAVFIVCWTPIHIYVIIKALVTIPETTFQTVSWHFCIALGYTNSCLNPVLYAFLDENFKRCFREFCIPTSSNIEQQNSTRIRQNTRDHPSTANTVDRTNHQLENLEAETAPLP
T2 sequence (P41143 whole entry): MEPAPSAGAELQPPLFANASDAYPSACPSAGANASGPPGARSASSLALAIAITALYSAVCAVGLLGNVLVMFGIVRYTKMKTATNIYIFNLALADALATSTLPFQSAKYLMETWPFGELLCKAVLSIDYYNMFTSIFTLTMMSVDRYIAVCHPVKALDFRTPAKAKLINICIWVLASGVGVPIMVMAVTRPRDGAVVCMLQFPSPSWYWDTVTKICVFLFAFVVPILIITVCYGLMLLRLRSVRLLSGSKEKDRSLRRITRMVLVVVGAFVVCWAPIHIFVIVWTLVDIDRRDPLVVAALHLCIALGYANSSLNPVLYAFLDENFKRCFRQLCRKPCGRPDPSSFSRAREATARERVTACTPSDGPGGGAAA

A word on the Emax: it is the size of the effect at its maximum, as opposed to the concentration needed. Regarding `C[C@@H](NC(=O)[C@@H](N)Cc1ccc(O)cc1)C(=O)NCC(=O)N(C)[C@@H](Cc1ccccc1)C(=O)NCCO` [DAMGO], the Emax in series [1] was determined as 205 ± 2.05%.
The inhibition is how much of the control response was suppressed. Higher therefore signals a response far below the control. As usually defined, the Ki is a dissociation constant, usually derived from enzyme kinetics or from competition with a known ligand. For `CN(C)CC1CCc2ccccc2C1(O)c1cccc(O)c1` (stereo not shown) [FW-1], in series [2], at 1 µM the inhibition was 21.7 ± 2.9% and the “activity / affinity for DOR, in words” value is reported as “not be active”. Also, in series [3] (in vitro), the “activity for MOR, in words” value is listed as “not be active”. The Ki in series [3] (read-out: Ki (±SEM) MOR) is > 10000 nM. In [4], this compound returned an inhibition at 1 µM of 56.3 ± 4.9%. Also, in [4] (in vitro), the “activity for KOR, in words” value is given as “not be active”.
As a reminder, the EC50 is the concentration at which the effect is half-maximal. Turning to `CN(C)CC1CCc2cc(-c3ccccc3)ccc2C1(O)c1cccc(O)c1` (stereo not shown) [FW-AII-OH-1], the “Inhibition (%) MOR” value in [5] (displacement of [3H]DAMGO at 1.0 μM) was 20 ± 1.0%. In addition, in series [6], the half-maximal effective concentration (EC50) is 580 ± 84 nM and the “KOR Emax%” value is 187 ± 2%. For the same compound, in series [7], the Ki is 141 nM and 140 nM. For the same compound, the “Inhibition (%) DOR” value in series [8] (displacement of [3H]DPDPE at 1.0 μM; cited from earlier work) is on record as 22.0 ± 1.0%.
As to `COc1ccccc1-c1ccc2c(c1)CCC(CN(C)C)C2(O)c1cccc(O)c1` (stereo not shown) [FW-AII-OH-2], in [9], the “DOR Emax%” value was 230 ± 7% and the EC50 was 9.3 ± 0.5 nM. The Ki in series [5] ([3H]DAMGO, CHO membranes, >10^4 = no binding affinity up to 10^4 nM, read-out: Ki (±SEM) MOR) was > 10000 nM. Besides, in [7] (displacement of [3H]U69593 at 1.0 μM), the “Inhibition (%) KOR” value is listed as 17.7 ± 0.1%. For the same compound, in series [8] ([3H]DPDPE, CHO membranes; >10^4 = no binding affinity up to 10^4 nM; read-out: Ki (±SEM) DOR; cited from earlier work), the Ki is 4.64 nM and 4.7 nM.
The term melting point denotes the temperature of the solid-liquid transition. As for `COc1ccccc1-c1ccc2c(c1)CCC(CN(C)CCc1ccccc1)C2(O)c1cccc(O)c1.Cl` (stereo not shown) [FW-DI-OH-2, 1-(3-hydroxyphenyl)-6-(2-methoxyphenyl)-2-((methyl(phenethyl)amino)methyl)-1,2,3,4-tetrahydronaphthalen-1-ol hydrochloride], the melting point was 200.2 to 202.4 °C. In series [2], the Ki was 8.7 nM and 8.65 nM; the “activity / affinity for DOR, in words” value was “high affinitive”. The compound also displayed an inhibition at 1 µM in series [4] of 30.1 ± 2.1%.
In the case of `CN(CCc1ccccc1)CC1CCc2cc(-c3ccccc3)ccc2C1(O)c1cccc(O)c1.Cl` (stereo not shown) [FW-DIII-OH-2, 1-(3-hydroxyphenyl)-2-((methyl(phenethyl)amino)methyl)-6-phenyl-1,2,3,4-tetrahydronaphthalen-1-ol hydrochloride], the melting point is 202.1 to 204.6 °C. Besides, in [2], the Ki was 228 nM and 229 nM; the “activity / affinity for DOR, in words” value was “moderate affinity”. Besides, 1 µM produced 13.5 ± 0.1% inhibition in series [4].
In the case of `CN(C)CC1CCCCC1(O)c1cccc(O)c1` (stereo not shown) [M1, reference compound], the Ki in series [7] ([3H]U69593, CHO cells, >10^4 = no binding affinity up to 10^4 nM) is > 10000 nM; in series [8] (read-out: Ki (±SEM) DOR; [3H]DPDPE, CHO membranes; >10^4 = no binding affinity up to 10^4 nM; cited from earlier work), > 10000 nM. The Emax in series [1] is 226 ± 9%.
